# Tested on: IL-12 production
# Experiment: Human in vitro assay: inhibition of IL-12 production in stimulated human PBMC or THP-1 cells (sandwich ELISA)
# Assay type: cell-based
# Conditions: primed with IFNγ and stimulated with LPS or SAC, IL-12 by ELISA
# Text: The biological activities of the compounds of the invention can be evaluated by a number of cell-based assays. One of such assays can be conducted using cells from human peripheral blood mononuclear cells (PBMC) or human monocytic cell line (THP-1). The cells are stimulated with a combination of human interferon-γ (IFNγ) and lipopolysaccharide or a combination of IFNγ and Staphylococcus aureus Cowan I in the presence of a test compound. The level of inhibition of IL-12 production can be measured by determining the amount of p70 by using a sandwich ELISA assay with anti-human IL-12 antibodies. IC50 of the test compound can then be determined. Specifically, PBMC or THP-1 cells are incubated with the test compound. Cell viability was assessed using the bioreduction of MTS [3-(4,5-dimethylthiazol-2-yl)-5-(3-carboxymethoxyphenyl)-2-(4-sulfophenyl)-2H-tetrazolium] (Promega, Madison, Wis.).
# Reagents. Staphylococcus aureus Cowan I (SAC) is obtained from Calbiochem (La Jolla, Calif.), and lipopolysaccharide (LPS, Serratia marscencens) is obtained from Sigma (St. Louis, Mo.). Human and mouse recombinant IFNγ are purchased from Boehringer Mannheim (Mannheim, Germany) and Pharmingen (San Diego, Calif.), respectively.
# Human In Vitro Assay. Human PBMC were isolated by centrifugation using Ficoll-Paque (Pharmacia Biotech, Uppsala, Sweden) and prepared in RPMI medium supplemented with 10% fetal calf serum (FCS), 100 U/mL penicillin, and 100 μg/mL streptomycin. PBMC were plated in wells of a 96-well plate at a concentration of 5×10^5 cells/well, and primed by adding IFNγ (30 U/mL) for 22 h and stimulated by adding LPS (1 μg/mL), or by adding IFNγ (100 U/mL) and then stimulated by adding SAC (0.01%). A test heteroaryl hydrazone compound was dissolved in DMSO, and added to wells of the 96-well plate. The final DMSO concentration was adjusted to 0.25% in all cultures, including the compound-free control. Human THP-1 cells were plated in wells, primed by adding IFNγ (100 U/mL) for 22 h and stimulated by adding SAC (0.025%) in the presence of different concentrations of the heteroaryl hydrazone compound. Cell-free supernatants were taken 18 h later for measurement of cytokines. Cell viability was assessed using the bioreduction of MTS. Cell survival was estimated by determining the ratio of the absorbance in compound-treated groups versus compound-free control.
# The supernatant was assayed for the amount of IL-12p40, IL-12p70, or IL-10 by using a sandwich ELISA with anti-human antibodies, i.e., a Human IL-12 p40 ELISA kit from R&D Systems (Berkeley, Calif.), and a Human IL-12 p70 or IL-10 ELISA kit from Endogen (Cambridge, Mass.). Assays were based on the manufacturer's instructions.
# The biological activities of heteroaryl hydrazone compounds were tested on human PBMC or THP-1 cells.
row,IC50 [nM],Structure (SMILES)
1,2.2,"Cc1cccc(NN=Cc2cc(N3CCOCC3)nc(OCCc3ccccn3)n2)c1 [Compound 1, N-[6-Morpholin-4-yl-2-(2-pyridin-2-yl-ethoxy)-pyrimidin-4-ylmethylene]-N′-m-tolyl-hydrazine]"
2,10,"Clc1cccc(NN=Cc2cc(N3CCOCC3)nc(OCCc3ccccn3)n2)c1 [Compound 2, N-(3-Chloro-phenyl)-N′-[6-morpholin-4-yl-2-(2-pyridin-2-yl-ethoxy)-pyrimidin-4-ylmethylene]-hydrazine]"
3,2.2,"COc1cccc(NN=Cc2cc(N3CCOCC3)nc(OCCc3ccccn3)n2)c1 [Compound 3, N-(3-Methoxy-phenyl)-N′-[6-morpholin-4-yl-2-(2-pyridin-2-yl-ethoxy)-pyrimidin-4-ylmethylene]-hydrazine]"
4,6.5,"Cc1ccc(C)c(NN=Cc2cc(N3CCOCC3)nc(OCCc3ccccn3)n2)c1 [Compound 4, N-(2,5-Dimethyl-phenyl)-N′-[6-morpholin-4-yl-2-(2-pyridin-2-yl-ethoxy)-pyrimidin-4-ylmethylene]-hydrazine]"
5,40,"Cc1cccc(NN=Cc2cc(OCCc3ccccn3)nc(N3CCOCC3)n2)c1 [Compound 6, N-[2-Morpholin-4-yl-6-(2-pyridin-2-yl-ethoxy)-pyrimidin-4-ylmethylene]-N′-m-tolyl-hydrazine]"

# Reference: US7935698B2, “Heteroaryl-hydrazone compounds” (Synta Pharmaceuticals Corporation, priority 2003, dated 2011)
